Experiment [1] deals with HA-GPR55 in HEK293T cells. Nature of the experiment: LPI-induced ERK1/2 activation in GPR55-transfected HEK293T cells. The format is cell-based, human. Conditions: 10 µM LPI. From the text: (§1) The construct of haemagglutinin (HA)-tagged human GPR55 in pcDNA3 (HA-GPR55) was a gift from Prof. K. Mackie, Indiana University, Bloomington, IN, USA [39], while the construct ss-3 × HA-GPR55 in pcDNA3.1 (ssGPR55) with a triple HA tag at the N-terminus and an optimised signal sequence (ss, derived from amino acids 1–33 of the human growth hormone: […]) for efficient surface expression was from Prof. A. Irving, Dundee University, UK [40]. For both constructs, mutations were introduced by site-directed mutagenesis using QuickChange kits (Stratagene, La Jolla, CA, USA), according to the manufacturer instructions. The primers for the K80A mutation were 5′-[…]-3′ and 5′-[…]-3′ (Tm, 70.6 °C), and for Q87A were 5′-[…]-3′ and 5′-[…]-3′ (Tm, 73.1 °C).
For GPR55 overexpression, HEK293T cells were plated in their growth medium without antibiotics at 2.6 × 10^5 cells/well in 12-well plates, and 24 h later, the cells were transfected with 1 µg cDNA/well using Lipofectamine 2000, according to the manufacturer instructions. The pcDNA3 empty vector or that coding for human HA-GPR55 wild-type or its mutants HA-GPR55-K80A and HA-GPR55-Q87A were used.
Twenty-four hours after transfection (HEK293T, HeLa cells or clones) or 72 h after interference (RAW264.7 cells), the cells were washed twice with HBSS^++, serum deprived (HEK293T cells for 4 h in DMEM; HeLa cells and clones for 2 h in MEM plus 2 mM glutamine and 25 mM HEPES; RAW264.7 cells for 2 h in DMEM), washed once again with HBSS^++, incubated in stimulation buffer (HBSS^++ with 10 mM HEPES, 0.4% faf-BSA for HEK293T cells; HBSS^++ with 25 mM HEPES and 0.01% faf-BSA for HeLa cells, clones, and RAW264.7 cells) in the absence or presence of stimuli, at 37 °C for the indicated times. […]
Protein lysates were subjected to SDS-PAGE, and after electrophoresis, the proteins were transferred to a nitrocellulose membrane (PerkinElmer Life Science, Boston, MA, USA). […] The membranes were then washed twice with T-TBS and once with TBS for 5 min, and the signals were detected by ECL (Amersham Pharmacia, Piscataway, NJ, USA). […]

Experiment [2] relates to ssGPR55-K80A. Nature of the experiment: GPR55-internalisation assay, K80A mutant (FACS). The class given is cell-based, human. The conditions noted are these: ssGPR55-K80A, HeLa; 10 µM soybean LPI, 15 min; three independent experiments.
Text: as §1
HeLa cells were plated at 1.5 × 10^5 cells/well in six-well plates in their growth medium without antibiotics. […]
For the GPR55-internalisation assay, after stimulation, the HeLa cells were washed twice with cold HBSS^++, stained while adhered with the monoclonal anti-HA antibody (1:1000) in PBS plus 3% BSA for 1 h on ice, washed three times with cold PBS, incubated with the Alexa488-tagged anti-mouse antibody (1:800) in PBS plus 3% BSA for 45 min on ice. […] The collected cells were centrifuged at 300×g, suspended in PBS plus 3% BSA, and analysed by FACS.

Regarding lysophosphatidylinositol [LPI], in experiment [1] (HEK293T with HA-GPR55 wild-type, K80A or Q87A), the “activation kinetics of ERK1/2” value is given as “comparable activation kinetics of ERK1/2 in all of the transfectants”. Besides, in experiment [1] (HEK293T), the “ERK1/2 phosphorylation, GPR55-transfected and empty-vector-transfected cells” value was “increased phosphorylation of ERK1/2”. In addition, the “change of cell-surface level of receptor” value in experiment [2] was “not changed”.

These data come from PMC8073907, “Peptide targeting of lysophosphatidylinositol-sensing GPR55 for osteoclastogenesis tuning” (Cell Communication and Signaling : CCS, 2021).
